Assay results: patent publication US20080051379A1, “Compositions and Methods for the Treatment of Peripheral B-Cell Neoplasms” (Trustees of Boston University, priority 2004, published 2008)
pIC50: −log10 of the molar value.

Tests used:
B-CLL cells [1] = test: Hoechst 33342 apoptosis assay, B-CLL cells; assay type: cell-based, human; conditions: for augmentation of hydrocortisone-induced apoptosis: 10 μM PDE inhibitor + 1 μM hydrocortisone; for apoptosis by Hoechst 33342 analysis: 48 hrs culture, Roli 10 μM, HC 1 μM
Description: FIGS. 1A-D show the effects of the cyclic nucleotide phosphodiesterase inhibitors rolipram, RO20-1724 and cilostamide on hydrocortisone and dexamethasone-induced apoptosis in B-CLL. In FIG. 1A, leukemic cells from 11 B-CLL patients were assessed for apoptosis by […] analysis after 48 hrs culture in media alone (No treatment), 10 μM rolipram (Roli), 1 μM hydrocortisone (HC) or a combination of the two drugs (Roli+HC). In FIGS. 1B and 1C, leukemic cells from five patients with B-CLL were cultured in media alone or with a dose titration of hydrocortisone (1B: solid line) or dexamethasone (1C: solid line), followed by assessment for apoptosis by Hoechst 33342 FACS analysis at 48 hours. Using the same experimental conditions, the effect of addition of 10 μM rolipram (thick dashed line) to the glucocorticoids was also assessed. In FIG. 1D, the apoptotic effects of the PDE4 inhibitor RO20-1724 (RO20) (10 μM) or the PDE3 inhibitor cilostamide (Cilost) (10 μM) were assessed on B-CLL cells when combined with 1 μM hydrocortisone. Data represent the mean±SEM of triplicate samples.
Blood samples were obtained by IRB-approved consent from flow cytometry-confirmed B-CLL patients that were either untreated or for whom at least one month had elapsed since chemotherapy. Patients with active infections or other serious medical conditions were not included in this study.
CCRF-CEM cells were obtained from ATCC^27. Leukemic or normal mononuclear cells were obtained by centrifugation over Histopaque 1077 (Sigma Chemical Company, St. Louis, Mo.). For purification of T cells, whole mononuclear cells from normal subjects were incubated with magnetic beads coated with appropriate antibodies, then positively purified using a magnet (Miltenyi). Cells were cultured in RPMI 1640 media (Biowhittaker, Walkersville, Md.) supplemented with 10% fetal calf serum, 50 μMol/L 2-mercaptoethanol, 2 mMol/L L-glutamine, 10 mM Hepes pH 7.4, […] (Sigma Chemical Company, St. Louis, Mo.). For isolation of glucocorticoid resistant clones, parental CCRF-CEM cells were treated with 1 μM dexamethasone for 10 days, and surviving cells diluted to ≦one cell/well in a 96-well flat-bottom tissue culture plate, grown for three weeks in media supplemented with 20% fetal calf serum and 1% insulin-transferrin-selenium (GIBCO), and then transferred to regular growth medium. […] For isolation of glucocorticoid-sensitive clones, the same procedure was used, except that treatment with dexamethasone was omitted. A glucocorticoid-sensitive subclone (CEM-S2) was inhibited in its survival by dexamethasone with an IC50=0.007 μM.
Hoechst 33342 and DiOC6(3) apoptosis assays were performed as previously described^22,28. For CCRF-CEM cell survival assays, cells were plated at a density of 3×10^4/well in 96-well flat-bottom plates in the presence of test reagents or vehicle in 0.1 mL media. Following incubation for 72 hrs, 20 μl of a 20:1 MTS (2 mg/mL)/PMS (0.92 mg/ml) solution was added to each well, and the plates incubated for 2 hrs at 37°. The absorbance (O.D.) of the formazan product was determined at 492 nm using a plate reader (Titertek Multiscan Plus, Labsystems). Percent cell viability was calculated as follows: (O.D. control sample−O.D. blank)/(O.D. test sample−O.D. blank)×100. All assays were performed in triplicate.

PDE4 = conditions: cited from earlier work
CCRF-CEM cells = test: MTS cell survival assay, CCRF-CEM cells; assay type: cell-based, human; conditions: 72 hours
Description: (§1) In FIG. 5A, the polyclonal parental cell line (CCRF-CEM), the single cell-derived glucocorticoid-resistant subclone (CEM-R8) and the single cell-derived glucocorticoid-sensitive subclone (CEM-S2) were cultured for 72 hours in the presence of vehicle (ETOH) or dexamethasone at the concentrations indicated and cell viability was assessed by the MTS assay as described in Methods. In FIG. 5B, the glucocorticoid-resistant subclone (CEM-R8) and the glucocorticoid-sensitive subclone (CEM-S2) were cultured for 72 hours in the presence of hydrocortisone (HC) (10 μM HC for the CEM-R8 cells and 1 μM HC for the CEM-S2 cells), 10 μM forskolin (Fsk), 10 μM rolipram (Rol), or combinations of these agents as indicated, and cell viability was assessed by the MTS assay as described in Methods. FIG. 5C: The glucocorticoid-resistant subclone (CEM-R8) and the glucocorticoid-sensitive subclone (CEM-S2) were cultured for 72 hours in the presence of varying amounts of dibutyryl cAMP (db-cAMP) in the absence (−HC) or presence (+HC) of 1 μM hydrocortisone as indicated, and cell viability was assessed by the MTS assay as described in Methods. […]
(§2) Hoechst 33342 and DiOC6(3) apoptosis assays were performed as previously described^22,28. […] The absorbance (O.D.) of the formazan product was determined at 492 nm using a plate reader (Titertek Multiscan Plus, Labsystems). […]

CD3+ CD4+ Sezary cells = test: Hoechst 33342 apoptosis assay, Sezary cells; assay type: cell-based, human; conditions: 10 μM rolipram or 1 μM hydrocortisone; one patient
Description: Magnetic bead purified peripheral blood T cells or leukemic cells from patients with B-CLL or Sezary syndrome were cultured in media alone or with a dose titration of hydrocortisone (solid line), followed by assessment for apoptosis by Hoechst 33342 FACS analysis at 48 hours. Using the same experimental conditions, the effect of addition of 10 μM rolipram (thick dashed line) or 10 μM rolipram and 40 μM forskolin (dotted line) was also assessed. The SEM of triplicate samples is shown; where not visible, the SEM was less than 1.0%.
(§3) CCRF-CEM cells were obtained from ATCC^27. Leukemic or normal mononuclear cells were obtained by centrifugation over Histopaque 1077 (Sigma Chemical Company, St. Louis, Mo.). For purification of T cells, whole mononuclear cells from normal subjects were incubated with magnetic beads coated with appropriate antibodies, then positively purified using a magnet (Miltenyi). […]
(§4) Hoechst 33342 and DiOC6(3) apoptosis assays were performed as previously described^22,28. […] The absorbance (O.D.) of the formazan product was determined at 492 nm using a plate reader (Titertek Multiscan Plus, Labsystems). Percent cell viability was calculated as follows: (O.D. control sample−O.D. blank)/(O.D. test sample−O.D. blank)×100. […]

[2] = test system: GRE luciferase constructs transiently transfected into B-CLL cells; test: GRE luciferase transactivation in B-CLL cells; assay type: cell-based, human; conditions: 1 mM Rp-8Br-cAMPS; 8 B-CLL samples; p<0.02
Description: B-CLL cells (FIG. 3A) or CCRF-CEM cells (FIG. 3B) were transiently transfected with a luciferase construct in which expression is regulated by GRE elements, followed by culture in 10 μM rolipram (R), 40 μM forskolin (Fsk), 1 μM hydrocortisone (HC), 1 mM Rp-8Br-cAMPS (Rp-8Br) or combinations of these agents. 12 hours after addition of the drugs, the relative luminescence of the samples was determined. The data shown are the mean of 8 experiments for B-CLL and two experiments for CCRF-CEM cells. The single asterisk denote a significant difference by paired student's t test between HC alone and either R/HC (FIG. 3A) or F/HC (FIG. 3B) (p<0.02). The double asterisk denotes a significant difference between Rp-8Br-cAMPS/HC and HC alone (p<0.02).
An MMTV GRE luciferase construct, originally created by Dr. R. Evans, was a gift from Dr. Remco Spanjaard (Dept. of Otolaryngology, Boston Medical Center)^29. 100 million B CLL cells in 200 μl of PBS were added to 500 μl of Nucleofector Solution D containing 30 μg of endotoxin-free (Qiagen) MMTV luciferase constructs. 100 μl was used per transfection using a Nucleofector electroporation instrument (Amaxa Biosystems, Koeln, Germany) using program U16. […] Up to six such aliquots of transfected cells were diluted in media and pooled, prior to distribution of 8 million cells/well in 48 well plates. Two hours after transfection, drugs, cytokines or vehicle alone were added to the transfected cells. 14 hours after transfection, samples were processed using a luciferase assay kit (Promega). Triplicate samples were analyzed with an MGM Instruments Optocomp I luminometer (Hamden, Conn.). Analysis of cell viability (trypan blue exclusion) and total protein (Pierce) verified that equivalent numbers of viable B-CLL cells were analyzed. 100 million CCRF-CEM cells were similarly transfected, cultured and analyzed except that Nucleofector program O17 was utilized. […] Data were analyzed using a two-sided paired t test for means.

B-CLL cells [3] = test: Hoechst 33342 apoptosis assay, B-CLL cells; assay type: cell-based, human; conditions: 1 mM Rp-8Br-cAMPS + 1 μM hydrocortisone, 48 hours; six B-CLL patients
PDE1 enzymes = conditions: cited from earlier work
[4] = test system: glucocorticoid-sensitive subclone (CEM-S2); test: MTS cell survival assay, CEM-S2; assay type: cell-based, human; conditions: 72 hours
Description: In FIG. 5A, the polyclonal parental cell line (CCRF-CEM), the single cell-derived glucocorticoid-resistant subclone (CEM-R8) and the single cell-derived glucocorticoid-sensitive subclone (CEM-S2) were cultured for 72 hours in the presence of vehicle (ETOH) or dexamethasone at the concentrations indicated and cell viability was assessed by the MTS assay as described in Methods. In FIG. 5B, the glucocorticoid-resistant subclone (CEM-R8) and the glucocorticoid-sensitive subclone (CEM-S2) were cultured for 72 hours in the presence of hydrocortisone (HC) (10 μM HC for the CEM-R8 cells and 1 μM HC for the CEM-S2 cells), 10 μM forskolin (Fsk), 10 μM rolipram (Rol), or combinations of these agents as indicated, and cell viability was assessed by the MTS assay as described in Methods. FIG. 5C: The glucocorticoid-resistant subclone (CEM-R8) and the glucocorticoid-sensitive subclone (CEM-S2) were cultured for 72 hours in the presence of varying amounts of dibutyryl cAMP (db-cAMP) in the absence (−HC) or presence (+HC) of 1 μM hydrocortisone as indicated, and cell viability was assessed by the MTS assay as described in Methods. The data shown were normalized to the vehicle control. Results represent the mean±SD of triplicate determinations.
as §3, §4

[5] = test system: glucocorticoid-resistant subclone (CEM-R8); test: MTS cell survival assay, CEM-R8; assay type: cell-based, human; conditions: dexamethasone-resistant CCRF-CEM cells; dbcAMP dose response, 72 hours
Description: as §1, §2

## CCCCOc1cc(CC2CNC(=O)N2)ccc1OC (centres unmarked) [RO20-1724, 4-(3-Butoxy-4-methoxybenzyl)-2-imidazolidinone]
B-CLL cells [1]; five B-CLL patients
  augmentation of hydrocortisone-induced apoptosis: augmented hydrocortisone-induced apoptosis
PDE4
  pIC50: 5.70

## C=C[C@@]1(C)CC(=O)[C@@H]2[C@@]3(C)CCCC(C)(C)[C@@H]3[C@H](O)[C@H](OC(C)=O)[C@@]2(C)O1 [1,9 dideoxyforskolin]
CCRF-CEM cells
  augmentation of glucocorticoid sensitivity: failed to augment glucocorticoid sensitivity

## C[C@]12CCC(=O)C=C1CC[C@@H]1[C@@H]2[C@@H](O)C[C@@]2(C)[C@H]1CC[C@]2(O)C(=O)CO [hydrocortisone]
CD3+ CD4+ Sezary cells
  apoptotic effect used separately on Sezary leukemic cells: little effect
B-CLL cells [1]; B-CLL patient #1, No Rx 10
  apoptosis by Hoechst 33342 analysis: 19%
B-CLL cells [1]; B-CLL patient #2, No Rx 11
  apoptosis by Hoechst 33342 analysis: 16%
B-CLL cells [1]; B-CLL patient #3, No Rx 13
  apoptosis by Hoechst 33342 analysis: 41%
B-CLL cells [1]; B-CLL patient #4, No Rx 23
  apoptosis by Hoechst 33342 analysis: 42%
B-CLL cells [1]; B-CLL patient #5, No Rx 25
  apoptosis by Hoechst 33342 analysis: 43%
B-CLL cells [1]; B-CLL patient #6, No Rx 27
  apoptosis by Hoechst 33342 analysis: 33%
B-CLL cells [1]; B-CLL patient #7, No Rx 31
  apoptosis by Hoechst 33342 analysis: 47%
B-CLL cells [1]; B-CLL patient #8, No Rx 33
  apoptosis by Hoechst 33342 analysis: 60%
B-CLL cells [1]; B-CLL patient #9, No Rx 35
  apoptosis by Hoechst 33342 analysis: 71%
B-CLL cells [1]; B-CLL patient #10, No Rx 44
  apoptosis by Hoechst 33342 analysis: 75%
B-CLL cells [1]; B-CLL patient #11, No Rx 61
  apoptosis by Hoechst 33342 analysis: 73%

## CN(C(=O)CCCOc1ccc2[nH]c(=O)ccc2c1)C1CCCCC1 [cilostamide]
B-CLL cells [1]; five B-CLL patients
  augmentation of hydrocortisone-induced apoptosis: nor augmented hydrocortisone-induced apoptosis
B-CLL cells [1]; 10 μM, five B-CLL patients
  induction of apoptosis by itself: neither induced apoptosis by itself

## Nc1ncnc2c1nc(Br)n2C1OC2COP(O)(=S)OC2C1O (centres unmarked) [Rp-8Br-cAMPS, (Rp)-8-Br-cAMPS]
[2]
  reduction of hydrocortisone-induced transactivation: 83%
B-CLL cells [3]
  inhibition of hydrocortisone-induced apoptosis: 86±14%

## CCOC(=O)C1=C[C@]2(CC)CCCN3CCc4c(n1c1ccccc41)[C@@H]32 [vinpocetine]
PDE1 enzymes
  pIC50: 4.68

## CCCC(=O)Nc1ncnc2c1ncn2[C@@H]1O[C@@H]2COP(=O)(O)O[C@H]2[C@H]1OC(=O)CCC [dbcAMP, dibutyryl cAMP]
[4]; dexamethasone-sensitive CCRF-CEM cells, dbcAMP dose response
  apoptotic effect combined with 1 μM hydrocortisone: marked synergy
[5]
  apoptotic effect combined with 1 μM hydrocortisone: marked synergy

## C[C@@H]1C[C@H]2[C@@H]3CCC4=CC(=O)C=C[C@]4(C)[C@@]3(F)[C@@H](O)C[C@]2(C)[C@@]1(O)C(=O)CO [dexamethasone]
[4]; Homo sapiens, CEM-S2 subclone, read-out: IC50, inhibition of survival
  pIC50: 8.15
